Experiment: Organ distribution of injected radioactivity in rats after I.V. injection
Format: in vivo, Ratten (weiblich, Wistar, spf)
Settings: Ratte
Procedure: Es werden je 3 Ratten (weiblich, Wistar, spf) zu sieben verschiedenen Zeitpunkten (2′, 10′, 20′, 40′, 1h, 6h, 15h) gemessen. Das Gewicht der Tiere lag zwischen 113 und 144 g. Die Fütterung erfolgte ad libitum. Die I.V. injizierten Dosen variierten von 184 bis 355 µCi in jeweils 0,2 ml.

CCOC(=O)c1ncn2c1CN(C)C(=O)c1c([123I])cccc1-2 [Aethyl-7-¹²³Jod-5,6-dihydro-5-methyl-6-oxo-4H-imidazo[1,5-a][1,4]benzodiazepin-3-carboxylat]
Prozent der injizierten Aktivität in den entsprechend Organen (Blase, 2′): 0,03 Prozent der injizierten Aktivität
Prozent der injizierten Aktivität in den entsprechend Organen (Blase, 10′): 0,06 Prozent der injizierten Aktivität
Prozent der injizierten Aktivität in den entsprechend Organen (Blase, 20′): 0,03 Prozent der injizierten Aktivität
Prozent der injizierten Aktivität in den entsprechend Organen (Blase, 40′): 0,01 Prozent der injizierten Aktivität
Prozent der injizierten Aktivität in den entsprechend Organen (Blase, 60′): 0,03 Prozent der injizierten Aktivität
Prozent der injizierten Aktivität in den entsprechend Organen (Blase, 6h): 0,09 Prozent der injizierten Aktivität
Prozent der injizierten Aktivität in den entsprechend Organen (Blase, 15h): 0,0022 Prozent der injizierten Aktivität
Prozent der injizierten Aktivität in den entsprechend Organen (Darm, 2′): 9,28 Prozent der injizierten Aktivität
Prozent der injizierten Aktivität in den entsprechend Organen (Darm, 10′): 12,70 Prozent der injizierten Aktivität
Prozent der injizierten Aktivität in den entsprechend Organen (Darm, 20′): 22,53 Prozent der injizierten Aktivität
Prozent der injizierten Aktivität in den entsprechend Organen (Darm, 40′): 25,54 Prozent der injizierten Aktivität
Prozent der injizierten Aktivität in den entsprechend Organen (Darm, 60′): 28,48 Prozent der injizierten Aktivität
Prozent der injizierten Aktivität in den entsprechend Organen (Darm, 6h): 19,50 Prozent der injizierten Aktivität
Prozent der injizierten Aktivität in den entsprechend Organen (Darm, 15h): 1,012 Prozent der injizierten Aktivität
Prozent der injizierten Aktivität in den entsprechend Organen (Femur, 2′): 0,39 Prozent der injizierten Aktivität
Prozent der injizierten Aktivität in den entsprechend Organen (Femur, 10′): 0,25 Prozent der injizierten Aktivität
Prozent der injizierten Aktivität in den entsprechend Organen (Femur, 20′): 0,14 Prozent der injizierten Aktivität
Prozent der injizierten Aktivität in den entsprechend Organen (Femur, 40′): 0,06 Prozent der injizierten Aktivität
Prozent der injizierten Aktivität in den entsprechend Organen (Femur, 60′): 0,04 Prozent der injizierten Aktivität
Prozent der injizierten Aktivität in den entsprechend Organen (Femur, 6h): 0,01 Prozent der injizierten Aktivität
Prozent der injizierten Aktivität in den entsprechend Organen (Femur, 15h): 0,004 Prozent der injizierten Aktivität
Prozent der injizierten Aktivität in den entsprechend Organen (Herz, 2′): 0,58 Prozent der injizierten Aktivität
Prozent der injizierten Aktivität in den entsprechend Organen (Herz, 10′): 0,37 Prozent der injizierten Aktivität
Prozent der injizierten Aktivität in den entsprechend Organen (Herz, 20′): 0,17 Prozent der injizierten Aktivität
Prozent der injizierten Aktivität in den entsprechend Organen (Herz, 40′): 0,06 Prozent der injizierten Aktivität
Prozent der injizierten Aktivität in den entsprechend Organen (Herz, 60′): 0,03 Prozent der injizierten Aktivität
Prozent der injizierten Aktivität in den entsprechend Organen (Herz, 6h): 0,009 Prozent der injizierten Aktivität
Prozent der injizierten Aktivität in den entsprechend Organen (Herz, 15h): 0,0035 Prozent der injizierten Aktivität
Prozent der injizierten Aktivität in den entsprechend Organen (Hirn, 2′): 3,11 Prozent der injizierten Aktivität
Prozent der injizierten Aktivität in den entsprechend Organen (Hirn, 10′): 5,38 Prozent der injizierten Aktivität
Prozent der injizierten Aktivität in den entsprechend Organen (Hirn, 20′): 4,20 Prozent der injizierten Aktivität
Prozent der injizierten Aktivität in den entsprechend Organen (Hirn, 40′): 4,02 Prozent der injizierten Aktivität
Prozent der injizierten Aktivität in den entsprechend Organen (Hirn, 60′): 2,42 Prozent der injizierten Aktivität
Prozent der injizierten Aktivität in den entsprechend Organen (Hirn, 6h): 0,08 Prozent der injizierten Aktivität
Prozent der injizierten Aktivität in den entsprechend Organen (Hirn, 15h): 0,0015 Prozent der injizierten Aktivität
Prozent der injizierten Aktivität in den entsprechend Organen (Kot + Urin, 2′): 0,05 Prozent der injizierten Aktivität
Prozent der injizierten Aktivität in den entsprechend Organen (Kot + Urin, 10′): 6,17 Prozent der injizierten Aktivität
Prozent der injizierten Aktivität in den entsprechend Organen (Kot + Urin, 20′): 19,39 Prozent der injizierten Aktivität
Prozent der injizierten Aktivität in den entsprechend Organen (Kot + Urin, 40′): 48,72 Prozent der injizierten Aktivität
Prozent der injizierten Aktivität in den entsprechend Organen (Kot + Urin, 60′): 51,71 Prozent der injizierten Aktivität
Prozent der injizierten Aktivität in den entsprechend Organen (Kot + Urin, 6h): 48,81 Prozent der injizierten Aktivität
Prozent der injizierten Aktivität in den entsprechend Organen (Kot + Urin, 15h): 42,69 Prozent der injizierten Aktivität
Prozent der injizierten Aktivität in den entsprechend Organen (Leber, 2′): 16,90 Prozent der injizierten Aktivität
Prozent der injizierten Aktivität in den entsprechend Organen (Leber, 10′): 34,37 Prozent der injizierten Aktivität
Prozent der injizierten Aktivität in den entsprechend Organen (Leber, 20′): 17,61 Prozent der injizierten Aktivität
Prozent der injizierten Aktivität in den entsprechend Organen (Leber, 40′): 3,90 Prozent der injizierten Aktivität
Prozent der injizierten Aktivität in den entsprechend Organen (Leber, 60′): 1,29 Prozent der injizierten Aktivität
Prozent der injizierten Aktivität in den entsprechend Organen (Leber, 6h): 0,15 Prozent der injizierten Aktivität
Prozent der injizierten Aktivität in den entsprechend Organen (Leber, 15h): 0,107 Prozent der injizierten Aktivität
Prozent der injizierten Aktivität in den entsprechend Organen (Lunge, 2′): 1,04 Prozent der injizierten Aktivität
Prozent der injizierten Aktivität in den entsprechend Organen (Lunge, 10′): 0,81 Prozent der injizierten Aktivität
Prozent der injizierten Aktivität in den entsprechend Organen (Magen, 2′): 0,81 Prozent der injizierten Aktivität
Prozent der injizierten Aktivität in den entsprechend Organen (Magen, 10′): 1,20 Prozent der injizierten Aktivität
Prozent der injizierten Aktivität in den entsprechend Organen (Magen, 20′): 1,28 Prozent der injizierten Aktivität
Prozent der injizierten Aktivität in den entsprechend Organen (Magen, 40′): 1,37 Prozent der injizierten Aktivität
Prozent der injizierten Aktivität in den entsprechend Organen (Magen, 60′): 1,96 Prozent der injizierten Aktivität
Prozent der injizierten Aktivität in den entsprechend Organen (Magen, 6h): 1,35 Prozent der injizierten Aktivität
Prozent der injizierten Aktivität in den entsprechend Organen (Magen, 15h): 0,346 Prozent der injizierten Aktivität
Prozent der injizierten Aktivität in den entsprechend Organen (Milz, 2′): 0,26 Prozent der injizierten Aktivität
Prozent der injizierten Aktivität in den entsprechend Organen (Milz, 10′): 0,21 Prozent der injizierten Aktivität
Prozent der injizierten Aktivität in den entsprechend Organen (Milz, 20′): 0,11 Prozent der injizierten Aktivität
Prozent der injizierten Aktivität in den entsprechend Organen (Milz, 40′): 0,06 Prozent der injizierten Aktivität
Prozent der injizierten Aktivität in den entsprechend Organen (Milz, 60′): 0,03 Prozent der injizierten Aktivität
Prozent der injizierten Aktivität in den entsprechend Organen (Milz, 6h): 0,008 Prozent der injizierten Aktivität
Prozent der injizierten Aktivität in den entsprechend Organen (Milz, 15h): 0,0035 Prozent der injizierten Aktivität
Prozent der injizierten Aktivität in den entsprechend Organen (Nieren, 2′): 3,15 Prozent der injizierten Aktivität
Prozent der injizierten Aktivität in den entsprechend Organen (Nieren, 10′): 7,48 Prozent der injizierten Aktivität
Prozent der injizierten Aktivität in den entsprechend Organen (Nieren, 20′): 6,25 Prozent der injizierten Aktivität
Prozent der injizierten Aktivität in den entsprechend Organen (Nieren, 40′): 1,53 Prozent der injizierten Aktivität
Prozent der injizierten Aktivität in den entsprechend Organen (Nieren, 60′): 0,79 Prozent der injizierten Aktivität
Prozent der injizierten Aktivität in den entsprechend Organen (Nieren, 6h): 0,04 Prozent der injizierten Aktivität
Prozent der injizierten Aktivität in den entsprechend Organen (Nieren, 15h): 0,009 Prozent der injizierten Aktivität
Prozent der injizierten Aktivität in den entsprechend Organen (Ovar, 2′): 0,09 Prozent der injizierten Aktivität
Prozent der injizierten Aktivität in den entsprechend Organen (Ovar, 10′): 0,06 Prozent der injizierten Aktivität
Prozent der injizierten Aktivität in den entsprechend Organen (Ovar, 20′): 0,05 Prozent der injizierten Aktivität
Prozent der injizierten Aktivität in den entsprechend Organen (Ovar, 40′): 0,02 Prozent der injizierten Aktivität
Prozent der injizierten Aktivität in den entsprechend Organen (Ovar, 60′): 0,02 Prozent der injizierten Aktivität
Prozent der injizierten Aktivität in den entsprechend Organen (Ovar, 6h): 0,003 Prozent der injizierten Aktivität
Prozent der injizierten Aktivität in den entsprechend Organen (Ovar, 15h): 0,0008 Prozent der injizierten Aktivität
Prozent der injizierten Aktivität in den entsprechend Organen (Restkörper, 2′): 63,94 Prozent der injizierten Aktivität
Prozent der injizierten Aktivität in den entsprechend Organen (Restkörper, 10′): 29,92 Prozent der injizierten Aktivität
Prozent der injizierten Aktivität in den entsprechend Organen (Restkörper, 20′): 25,92 Prozent der injizierten Aktivität
Prozent der injizierten Aktivität in den entsprechend Organen (Restkörper, 40′): 11,04 Prozent der injizierten Aktivität
Prozent der injizierten Aktivität in den entsprechend Organen (Restkörper, 60′): 7,09 Prozent der injizierten Aktivität
Prozent der injizierten Aktivität in den entsprechend Organen (Restkörper, 6h): 2,88 Prozent der injizierten Aktivität
Prozent der injizierten Aktivität in den entsprechend Organen (Restkörper, 15h): 1,30 Prozent der injizierten Aktivität
Prozent der injizierten Aktivität in den entsprechend Organen (Schilddrüse, 2′): 0,18 Prozent der injizierten Aktivität
Prozent der injizierten Aktivität in den entsprechend Organen (Schilddrüse, 10′): 0,15 Prozent der injizierten Aktivität
Prozent der injizierten Aktivität in den entsprechend Organen (Schilddrüse, 20′): 0,18 Prozent der injizierten Aktivität
Prozent der injizierten Aktivität in den entsprechend Organen (Schilddrüse, 40′): 0,03 Prozent der injizierten Aktivität
Prozent der injizierten Aktivität in den entsprechend Organen (Schilddrüse, 60′): 0,02 Prozent der injizierten Aktivität
Prozent der injizierten Aktivität in den entsprechend Organen (Schilddrüse, 6h): 0,008 Prozent der injizierten Aktivität
Prozent der injizierten Aktivität in den entsprechend Organen (Schilddrüse, 15h): 0,0015 Prozent der injizierten Aktivität
Prozent der injizierten Aktivität in den entsprechend Organen (Totalkörper, 2′): 99,75 Prozent der injizierten Aktivität
Prozent der injizierten Aktivität in den entsprechend Organen (Totalkörper, 10′): 92,96 Prozent der injizierten Aktivität
Prozent der injizierten Aktivität in den entsprechend Organen (Totalkörper, 20′): 78,87 Prozent der injizierten Aktivität
Prozent der injizierten Aktivität in den entsprechend Organen (Totalkörper, 40′): 47,80 Prozent der injizierten Aktivität
Prozent der injizierten Aktivität in den entsprechend Organen (Totalkörper, 60′): 43,17 Prozent der injizierten Aktivität
Prozent der injizierten Aktivität in den entsprechend Organen (Totalkörper, 6h): 24,16 Prozent der injizierten Aktivität

Reference: patent EP0353754A2, “Radioactively marked benzodiazepin derivates” (F. HOFFMANN-LA ROCHE AG, priority 1988, dated 1990)
